In US7776826B2, “Method for fostering bone formation and preservation” (Unigene Laboratories, Inc., priority 2004, dated 2010):

System: Male Sprague-Dawley rats
Assay: PIXIMUS (DEXA) analysis of femur distal marrow cavity BMD after left femur bone marrow ablation (bmx), Groups A-J
Type: in vivo, rat
Source text: FIG. 1 is a graphical representation of the results of a PIXIMUS analysis of the femur distal marrow cavity bone mineral density (“BMD”) of groups of laboratory rats which were sacrificed at one-week intervals during a three-week test regimen. The PIXIMUS analyzer is available from Lunar Corp., Palo Alto, Calif. and provides Dual Energy X-Ray Absorptiometry (“DEXA”) data for small animals such as mice and rats. Male Sprague-Dawley rats (5 animals per group) aged 9 weeks were sacrificed and tested at time 0 and after 1, 2 and 3 weeks. The various groups were subjected to the following treatment modalities: Group A—left femur control; Group B—left femur sham; Group C—mechanical bone marrow ablation (bmx) to alter the contents of the bone marrow cavity of the left femur; Group D—mechanical bone marrow ablation treatment (bmx) of the left femur, coupled with the administration of an amidated parathyroid hormone truncate (PTH[1-34]-NH2) during days 1-21; and Group E—a right (non-bmx) femur BMD measurement of rats treated during days 1-21 with an amidated parathyroid hormone truncate (PTH[1-34]-NH2) wherein the rat's left femur had undergone a bone ablation (bmx) treatment;
FIG. 2 is a graphical representation of the results of a PIXIMUS analysis of the femur distal marrow cavity BMD of a second set of groups of male Sprague-Dawley rats (5 animals per group) aged 9 weeks which were sacrificed and tested at time 0 and after 1, 2 and 3 weeks. The various groups were subjected to the following treatment modalities: Group F—left femur control; Group G—left femur sham; Group H—mechanical bone marrow ablation (bmx) to alter the contents of the bone marrow cavity of the left femur; Group I—mechanical bone marrow ablation (bmx) of the left femur, coupled with administration of an amidated parathyroid hormone truncate (PTH[1-34]-NH2) during days 1-7, followed by the administration of a salmon calcitonin (sCT) antiresorptive agent during days 7-21; and Group J—a right femur BMD measurement of rats treated with an amidated parathyroid hormone truncate (PTH[1-34]-NH2) wherein the rat's left femur had undergone a bone marrow ablation (bmx) treatment;
Absent the bone anabolic agent, the initial burst of bone formation is quickly followed by the resorption of newly formed bone by osteoclasts (see, e.g., the Group C curve in FIG. 1). […] Table 1 (below) sets forth the values upon which the curves obtained with Groups A-E in FIG. 1 are based. As no readings were taken for the Control (Group A) and Sham (Group B) groups at Week 1 and Week 2, these values were estimated for purposes of preparing the curves for these two Groups. Table 1, moreover, provides the standard deviations for the values obtained in each Group, which standard deviations are also indicated in FIG. 1.
As indicated herein the bmx treatment was always administered to the rats' left femur and never to the right femur. The non-ablated contralateral femur was analyzed, however, throughout the testing protocols described herein as a control used for detecting the systemic effect of the bone anabolic agent. That is, the results achieved with the contralateral (right) femur permit one to exclude the effect attributable to the bmx treatment. Moreover, analysis of the rats' right femur control also enabled the inventors to determine whether the bmx treatment of the left femur had any effect on other skeletal sites located within the body of the rat.
FIG. 2 is provided to illustrate, inter alia, the further beneficial effect achieved due to the overlapping (i.e., with PTH administration) or subsequent administration of the antiresorptive agent salmon calcitonin (sCT). First, a comparison of the curves obtained with Group H (bmx alone) and Group J (PTH+sCT with no bmx) to that obtained with Group I (bmx PTH+sCT) provide still further evidence of the synergistic effect attributable to the use of the method of the invention. […]

Substance | bone formation / resorption by DEXA BMD curves, in words (left femur with bmx) | BMD (DEXA) (left femur with bmx, Week 0) | BMD (DEXA) (left femur with bmx, Week 1) | BMD (DEXA) (left femur with bmx, Week 2) | BMD (DEXA) (left femur with bmx, Week 3) | BMD (DEXA) (right (non-bmx) femur, Week 0) | BMD (DEXA) (right (non-bmx) femur, Week 1) | BMD (DEXA) (right (non-bmx) femur, Week 2) | BMD (DEXA) (right (non-bmx) femur, Week 3)
PTH[1-34]-NH2 | unexpected increase in degree, speed and longevity of bone formation | 0.096 ± .007 gm/cm^2 | 0.166 ± .004 gm/cm^2 | 0.200 ± .030 gm/cm^2 | 0.190 ± .008 gm/cm^2 | 0.097 ± .008 gm/cm^2 | 0.124 ± .007 gm/cm^2 | 0.141 ± .007 gm/cm^2 | 0.154 ± .007 gm/cm^2
salmon calcitonin [CT, reference compound] | significantly diminishes the proportion of the newly formed bone which is resorbed | – | – | – | – | – | – | – | –
